Data reported in patent publication EP4582426A1, “PAN-KRAS INHIBITOR COMPOUND” (Adlai Nortye Biopharma Co., Ltd., priority 2022, dated 2024).

Assays:
[1] = system: AsPC-1 (G12D); assay: In vitro cell proliferation inhibition test (CellTiter-Glo Luminescent Cell Viability Assay); type: cell-based; details: AsPC-1 cell line, Pancreas, KRAS (p.G12D), cells and compounds co-incubated 72 hours
Excerpt: (§1) Due to the diversity of RAS mutations and in order to evaluate the activity of compounds in different RAS mutant cell lines, we selected KRAS^WT, KRAS^G12C, KRAS^G12D), KRAS^G12V and BRAF mutant cell lines (see the table below) for in vitro activity evaluation and screening of compounds .
(§2) Experimental protocol: CellTiter-Glo® Cell Luminescent Viability Assay (Promega)
(§3) According to the doubling time of different cell lines, different numbers of cells (1000-5000 cells/well) were inoculated into 96-well plates containing 180 µl of the corresponding medium, and cultured overnight in a 37°C cell incubator containing 5% CO2. On the second day, the compound to be tested was pre-diluted 3-fold with the medium, the highest concentration was 100 µM, and there were 10 concentration gradients in total; then 20 µl of the medium containing different concentrations of the compound was added to the cells in the 96-well plate to ensure the final concentration of the compound to be up to 10 µM, with 10 concentration gradients of 3-fold dilutions. After co-incubating cells and compounds for 72 hours, the 96-well plate was taken out of the incubator, placed at room temperature for 30 minutes, and then 25 µl CellTiter-Glo® Reagent was added to each well to mix well, and incubated at room temperature for 10 minutes, and then 100 µl of the sample was transferred to a white 96-well plate (OptiPlateTM-96, PerkinElmer), the […] signal value was read using a multi-functional microplate reader (SpectraMax® i3x, Molecular devices). Subsequently, the signal value was standardized, and the four-parameter fitting regression equation was used for curve fitting to calculate the half maximal inhibitory concentration (IC50) of the compound on the cell line. Table 3: Antiproliferative activity of compounds of the present invention on KRAS cell mutants

[2] = system: SW480 (G12V); assay: as above; type: cell-based; details: SW480 cell line, Large intestine, Colon, KRAS (p.G12V), cells and compounds co-incubated 72 hours
Excerpt: as §1, §2, §3

| Compound | IC50 [1] [nM] | IC50 [2] [nM] | other results |
| --- | --- | --- | --- |
| CCn1c(-c2cc(C#Cc3cccnc3)cnc2C(C)OC)c2c3cc(ccc31)-c1csc(n1)CC(NC(=O)C1CC1C)C(=O)N1CCCC(N1)C(=O)OCC(C)(C)C2 [Example 17, (1S,2S)-N-((63S,4S,Z)-11-ethyl-12-(2-((S)-1-methoxyethyl)-5-(pyridin-3-ylethynyl)pyridin-3-yl)-10,10-dimethyl-5,7-dioxo-61,62,63,64,65,66-hexahydro-11H-8-oxa-2(4,2)-thiazola-1(5,3)-indola-6(1,3)-pyridazinacyclonecaphane-4-yl)-2-methylcyclopropane-1-carboxamide] | 37.8 | 30.2 | IC50 ([1]; listed as 17'): 700 nM; IC50 ([2]; listed as 17'): 474 nM |
| CCNc1cccc(C#Cc2cnc([C@H](C)OC)c(-c3c4c5cc(ccc5n3CC)-c3csc(n3)C[C@H](NC(=O)[C@H]3C[C@@H]3C)C(=O)N3CCC[C@H](N3)C(=O)OCC(C)(C)C4)c2)n1 (single isomer, unassigned) [Example 31] | 78 | 100 |  |
| CCn1c(-c2cc(C#CCN3CCCCC3)cnc2[C@H](C)OC)c2c3cc(ccc31)-c1csc(n1)C[C@H](NC(=O)[C@H]1C[C@@H]1C)C(=O)N1CCC[C@H](N1)C(=O)OCC(C)(C)C2 [Example 59, (1S,2S)-N-((6^3S,4S,Z)-1^1-ethyl-1^2-(2-((S)-1-methoxyethyl)-5-(3-(piperidin-1-yl)prop-1-yn-1-yl)pyridin-3-yl)-10,10-dimethyl-5,7-dioxo-6^1,6^2,6^3,6^4,6^5,6^6-hexahydro-1^1H-8-oxa-2(4,2)-thiazola-1(5,3)-indola-6(1,3)-pyridazinacycloundecaphane-4-yl)-2-methylcyclopropane-1-carboxamide] | 0.96 | 1.76 |  |
| (1S,2S)-N-((6^3S,4S,Z)-1^1-ethyl-1^2-(5-(((R)-4-(2-hydroxyethyl)morpholin-3-yl)ethynyl)-2-((S)-1-methoxyethyl)pyridin-3-yl)-10,10-dimethyl-5,7-dioxo-6^1,6^2,6^3,6^4,6^5,6^6-hexahydro-1^1H-8-oxa-2(4,2)-thiazola-1(5,3)-indola-6(1,3)-pyridazinacycloundecaphane-4-yl)-2-methylcyclopropane-1-carboxamide [Example 33] | 2.9 | 6.5 |  |
| CCn1c(-c2cc(C#CCN3CCOC(CO)C3)cnc2C(C)OC)c2c3cc(ccc31)-c1csc(n1)CC(NC(=O)C1CC1C)C(=O)N1CCCC(N1)C(=O)OCC(C)(C)C2 (single isomer, unassigned) [Example 20] | 2.4 | 8.9 |  |
| CCn1c(-c2cc(C#C[C@@H]3COCCN3C)cnc2[C@H](C)OC)c2c3cc(ccc31)-c1csc(n1)C[C@H](NC(=O)[C@H]1C[C@@H]1C)C(=O)N1CCC[C@H](N1)C(=O)OCC(C)(C)C2 [Example 7, (1S,2S)-N-((63S,4S,Z)-11-ethyl-12-(2-((S)-1-methoxyethyl)-5-(((R)-4-methylmorpholin-3-yl)ethynyl)pyridin-3-yl)-10,10-dimethyl-5,7-dioxo-61,62,63,64,65,66-hexahydro-11H-8-oxa-2(4,2)-Thiazola-1(5,3)-indola-6(1,3)-pyridazinacyclonecaphane-4-yl)-2-methylcyclopropane-1-carboxamide] | 5.1 | 4.6 | IC50 ([1]; listed as 7'): 2640 nM; IC50 ([2]; listed as 7'): 830 nM |
| CCn1c(-c2cc(C#C[C@@H]3CCN3C)cnc2[C@H](C)OC)c2c3cc(ccc31)-c1csc(n1)C[C@H](NC(=O)[C@H]1C[C@@H]1C)C(=O)N1CCC[C@H](N1)C(=O)OCC(C)(C)C2 [Example 13, (1S,2S)-N-((63S,4S,Z)-11-ethyl-12-(2-((S)-1-methoxyethyl)-5-(((S)-1-methylazetidin-2-yl)ethynyl)pyridin-3-yl)-10,10-dimethyl-5,7-dioxo-61,62,63,64,65,66-hexahydro-11H-8-oxa-2(4,2)-Thiazola-1(5,3)-indola-6(1,3)-pyridazinacyclonecaphane-4-yl)-2-methylcyclopropane-1-carboxamide] | 5.7 | 7590 | IC50 ([1]; listed as 13'): 2820 nM |
| CCn1c(-c2cc(C#CCN(C)C)cnc2C(C)OC)c2c3cc(ccc31)-c1csc(n1)CC(NC(=O)C1C(C)C1C)C(=O)N1CCCC(N1)C(=O)OCC(C)(C)C2 [Example 58, (1r,2R,3S)-N-((6^3S,4S,Z)-1^2-(5-(3-(dimethylamino)prop-1-yn-1-yl)-2-((S)-1-methoxyethyl)pyridin-3-yl)-1^1-ethyl-10,10-dimethyl-5,7-dioxo-6^1,6^2,6^3,6^4,6^5,6^6-hexahydro-1^1H-8-oxa-2(4,2)-thiazola-1(5,3)-indola-6(1,3)-pyridazinacycloundecaphane-4-yl)-2,3-dimethylcyclopropane-1-carboxamide] | 0.7 | 0.24 |  |
| (1S,2S)-N-((6^3S,4S,Z)-1^1-ethyl-1^2-(2-((S)-1-methoxyethyl)-5-(((S)-4-methyl-1,1-dioxidothiomorpholin-2-yl)ethynyl)pyridin-3-yl)-10,10-dimethyl-5,7-dioxo-6^1,6^2,6^3,6^4,6^5,6^6-hexahydro-1^1H-8-oxa-2(4,2)-thiazola-1(5,3)-indola-6(1,3)-pyridazinacycloundecaphane-4-yl)-2-methylcyclopropane-1-carboxamide [Example 45] | 5.3 | 7.4 |  |
| (1S,2S)-N-((6^3S,4S,Z)-1^1-ethyl-1^2-(5-((2-(ethylamino)pyrimidin-5-yl)ethynyl)-2-((S)-1-methoxyethyl)pyridin-3-yl)-10,10-dimethyl-5,7-dioxo-6^1,6^2,6^3,6^4,6^5,6^6-hexahydro-1^1H-8-oxa-2(4,2)-thiazola-1(5,3)-indola-6(1,3)-pyridazinacycloundecaphane-4-yl)-2-methylcyclopropane-1-carboxamide [Example 42] | 22.2 | 6.9 |  |
| (1r,2R,3S)-N-((6^3S,4S,Z)-12-(5-(3-((S)-3-(ethoxymethyl)morpholino)prop-1-yn-1-yl)-2-((S)-1-methoxyethyl)pyridin-3-yl)-1^1-ethyl-10,10-dimethyl-5,7-dioxo-6^1,6^2,6^3,6^4,6^5,6^6-hexahydro-1^1H-8-oxa-2(4,2)-thiazola-1(5,3)-indola-6(1,3)-pyridazinacycloundecaphane-4-yl)-2,3-dimethylcyclopropane-1-carboxamide [Example 37] | 1.01 | 0.68 |  |
| CCn1c(-c2cc(C#CC3CCN(CCO)CC3)cnc2C(C)OC)c2c3cc(ccc31)-c1csc(n1)CC(NC(=O)C1CC1C)C(=O)N1CCCC(N1)C(=O)OCC(C)(C)C2 [Example 55, (1S,2S)-N-((6^3S,4S,Z)-1^1-ethyl-1^2-(5-((1-(2-hydroxyethyl)piperidin-4-yl)ethynyl)-2-((S)-1-methoxyethyl)pyridin-3-yl)-10,10-dimethyl-5,7-dioxo-6^1,6^2,6^3,6^4,6^5,6^6-hexahydro-1^1H-8-oxa-2(4,2)-thiazola-1(5,3)-indola-6(1,3)-pyridazinacycloundecaphane-4-yl)-2-methylcyclopropane-1-carboxamide] | 3 | 23.3 |  |
| CCn1c(-c2cc(C#CCCN3CCOCC3)cnc2[C@H](C)OC)c2c3cc(ccc31)-c1csc(n1)C[C@H](NC(=O)[C@H]1C[C@@H]1C)C(=O)N1CCC[C@H](N1)C(=O)OCC(C)(C)C2 (single isomer, unassigned) [Example 5] | 3220 | 24.6 | IC50 ([2]; listed as 5'): 2020 nM |
| CCn1c(-c2cc(C#Cc3cccc4c3CN(C)C4)cnc2[C@H](C)OC)c2c3cc(ccc31)-c1csc(n1)C[C@H](NC(=O)[C@H]1C[C@@H]1C)C(=O)N1CCC[C@H](N1)C(=O)OCC(C)(C)C2 (single isomer, unassigned) [Example 30] | 8.2 | 84.2 |  |
| CCn1c(-c2cc(C#Cc3cnc4c(c3)CN(C)C4)cnc2[C@H](C)OC)c2c3cc(ccc31)-c1csc(n1)C[C@H](NC(=O)[C@H]1C[C@@H]1C)C(=O)N1CCC[C@H](N1)C(=O)OCC(C)(C)C2 [Example 46, (1S,2S)-N-((6^3S,4S,Z)-1^1-ethyl-1^2-(2-((S)-1-methoxyethyl)-5-((6-methyl-6,7-dihydro-5H-pyrrolo[3,4-b]pyridin-3-yl)ethynyl)pyridin-3-yl)-10,10-dimethyl-5,7-dioxo-6^1,6^2,6^3,6^4,6^5,6^6-hexahydro-1^1H-8-oxa-2(4,2)-thiazola-1(5,3)-indola-6(1,3)-pyridazinacycloundecaphane-4-yl)-2-methylcyclopropane-1-carboxamide] | 19.5 | 11.4 |  |
| CCn1c(-c2cc(C#CCN3CCOCC3)cnc2C(C)OC)c2c3cc(ccc31)-c1csc(n1)CC(NC(=O)C1CC1F)C(=O)N1CCCC(N1)C(=O)OCC(C)(C)C2 (single isomer, unassigned) [Example 24] | 24.2 | 58.4 |  |
